Values quoted from earlier work, collected in patent publication US20070065374A1, “Nanoparticulate leukotriene receptor antagonist/corticosteroid formulations” (Elan Pharma International Limited, priority 2005, published 2007).
Read-outs that look alike come from different tables or passages of the source.

How the values were obtained:
[1] = for time to peak plasma concentrations: after oral administration
[2] = since the approval of zafirlukast

COc1cc(C(=O)NS(=O)(=O)c2ccccc2C)ccc1Cc1cn(C)c2ccc(NC(=O)OC3CCCC3)cc12 [Zafirlukast]
time to peak plasma concentrations [1]: approximately three | reduction of bioavailability by food ([1]; oral, in 75% of patients): approximately 40% | Churg-Strauss syndrome reported [2]: at least eight

CC(C)(O)c1ccccc1CC[C@@H](SCC1(CC(=O)O)CC1)c1cccc(/C=C/c2ccc3ccc(Cl)cc3n2)c1 [Montelukast]
effect of food on oral bioavailability ([1]; 5 mg tablet (pediatric dose)): reduced by food | effect of food on oral bioavailability ([1]; 10 mg tablet (adult dose)): unaffected by food | time to peak plasma concentrations [1]: approximately three
